Where “and” joins values, the source holds several entries; their conditions need not be identical. Equal entries are not always repeated.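 Interpolation was linear, between the two tested concentrations surrounding the appropriate level; five concentrations were tested over 48 hours in 96-well plates. At the GI50, growth is halved. TGI: total growth inhibition.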
Key:
Assay in all cases: NCI-60 cell line screen, 48 h
HOP-92 NSCLC = tested on: HOP-92 NSCLC
HT29 colon = tested on: HT29 colon
IGROV1 ovarian = tested on: IGROV1 ovarian
M14 melanoma = tested on: M14 melanoma
MDA-MB-435 = tested on: MDA-MB-435
NCI-H226 lung = tested on: NCI-H226 lung
NCI-H23 lung = tested on: NCI-H23 lung
NCI/ADR-RES ovarian = tested on: NCI/ADR-RES ovarian
T-47D breast = tested on: T-47D breast
EKVX NSCLC = tested on: EKVX NSCLC

Question: How did the TGI (HOP-92 NSCLC) turn out when `Cc1ccc(NC(=S)NNC(=O)c2cc(-c3ccccc3)nc3ccccc23)cc1C` was run?
Answer: 48.8 µM

Question: What about the TGI (HT29 colon) of the same compound?
Answer: 49.2 µM

Question: What about the TGI (IGROV1 ovarian) of the same compound?
Answer: 63.6 µM

Question: And the TGI (M14 melanoma)?
Answer: 33.8 µM

Question: And the TGI (MDA-MB-435)?
Answer: 59.5 µM

Question: And the TGI (NCI-H226 lung)?
Answer: 90.1 µM

Question: What about the TGI (NCI-H23 lung) of the same compound?
Answer: 48.2 µM

Question: And the TGI (NCI/ADR-RES ovarian)?
Answer: 49.1 µM

Question: What about the TGI (T-47D breast) of the same compound?
Answer: 8.41 µM

Question: Which TGI (EKVX NSCLC) does the source give for `CO/N=C1/C(n2[nH]c(=O)n(-c3ccccc3)c2=O)C2C=CC1n1c(=O)n(-c3ccccc3)c(=O)n12` (stereo not given) here?
Answer: > 100 µM

Question: What about the TGI (HT29 colon) of the same compound?
Answer: > 100 µM

Question: What about the TGI (IGROV1 ovarian) of the same compound?
Answer: > 100 µM

Question: And the TGI (M14 melanoma)?
Answer: > 100 µM

Question: And the TGI (MDA-MB-435)?
Answer: > 100 µM

Question: What about the TGI (NCI-H226 lung) of the same compound?
Answer: > 100 µM

Question: What about the TGI (NCI-H23 lung) of the same compound?
Answer: > 100 µM

Question: And the TGI (NCI/ADR-RES ovarian)?
Answer: > 100 µM

Question: What about the TGI (T-47D breast) of the same compound?
Answer: > 100 µM

Question: What does the source list for `O=[N+]([O-])c1cccc2nc3ccccc3c(NCCNCCO)c12`?
Answer: GI50 (EKVX NSCLC): 0.0306 µM; TGI (EKVX NSCLC): 0.286 µM and 0.181 µM; TGI (HOP-92 NSCLC): 0.0237 µM; TGI (IGROV1 ovarian): 0.0233 µM and 0.0569 µM; TGI (M14 melanoma): 0.0236 µM and 0.0101 µM; TGI (MDA-MB-435): 0.0278 µM and 0.014 µM; TGI (NCI-H226 lung): 0.0495 µM and 0.0261 µM; TGI (NCI-H23 lung): 0.00448 µM; GI50 (NCI/ADR-RES ovarian): 0.911 µM; TGI (NCI/ADR-RES ovarian): 2.15 µM and 14.9 µM; TGI (T-47D breast): 0.101 µM and 0.0533 µM

Question: Which results are given for `COc1ccc2c(-c3ccc(O)cc3)c(Oc3ccccc3)c(=O)oc2c1`?
Answer: TGI (EKVX NSCLC): > 77.8 µM; TGI (HOP-92 NSCLC): > 87.8 µM; TGI (HT29 colon): 98.2 µM; TGI (IGROV1 ovarian): > 62.3 µM; TGI (M14 melanoma): > 100 µM; TGI (MDA-MB-435): > 100 µM; TGI (NCI-H226 lung): > 87.2 µM; TGI (NCI-H23 lung): > 100 µM; TGI (NCI/ADR-RES ovarian): > 100 µM; TGI (T-47D breast): > 100 µM

Question: Which TGI (EKVX NSCLC) does the source give for `Cc1ccc(N2C(=O)CC(=O)N(NC(=O)C(C)Oc3ccccc3C)C2=S)cc1` (stereo not given) here?
Answer: > 100 µM

Question: What about the TGI (HOP-92 NSCLC) of the same compound?
Answer: > 100 µM

Question: And the TGI (HT29 colon)?
Answer: > 100 µM

Question: And the TGI (IGROV1 ovarian)?
Answer: > 100 µM

Question: And the TGI (M14 melanoma)?
Answer: > 100 µM

Question: And the TGI (MDA-MB-435)?
Answer: > 100 µM

Question: And the TGI (NCI-H226 lung)?
Answer: > 100 µM

Question: What about the TGI (NCI-H23 lung) of the same compound?
Answer: > 100 µM

Question: What about the TGI (NCI/ADR-RES ovarian) of the same compound?
Answer: > 100 µM

Question: And the TGI (T-47D breast)?
Answer: > 100 µM

Question: For `COC(=O)[C@H]1ON2O[C@@H](O[C@H]3CCCC[C@@H]3C(C)(C)c3ccccc3)C[C@@H]3CC[C@H]1[C@@]32C`, which TGI (EKVX NSCLC) is on record?
Answer: > 100 µM

Question: And the TGI (HOP-92 NSCLC)?
Answer: > 100 µM

Question: What about the TGI (HT29 colon) of the same compound?
Answer: > 100 µM

Question: What about the TGI (IGROV1 ovarian) of the same compound?
Answer: > 100 µM

Question: And the TGI (M14 melanoma)?
Answer: > 100 µM

Question: And the TGI (MDA-MB-435)?
Answer: > 100 µM

Question: What about the TGI (NCI-H226 lung) of the same compound?
Answer: > 100 µM

Question: What about the TGI (NCI-H23 lung) of the same compound?
Answer: > 100 µM

Question: What about the TGI (NCI/ADR-RES ovarian) of the same compound?
Answer: > 100 µM

Question: What about the TGI (T-47D breast) of the same compound?
Answer: > 100 µM

Question: Which TGI (EKVX NSCLC) does the source give for `COc1ccc(S(=O)Cc2cc(OC)ccc2OC)cc1` (stereo not given) here?
Answer: > 100 µM

Question: What about the TGI (HOP-92 NSCLC) of the same compound?
Answer: > 100 µM

Question: What about the TGI (HT29 colon) of the same compound?
Answer: > 100 µM

Question: What about the TGI (IGROV1 ovarian) of the same compound?
Answer: > 100 µM

Question: What about the TGI (M14 melanoma) of the same compound?
Answer: > 100 µM

Question: And the TGI (MDA-MB-435)?
Answer: > 100 µM

Question: And the TGI (NCI-H226 lung)?
Answer: > 100 µM

Question: What about the TGI (NCI-H23 lung) of the same compound?
Answer: > 100 µM

Question: And the TGI (NCI/ADR-RES ovarian)?
Answer: > 100 µM

Question: And the TGI (T-47D breast)?
Answer: > 100 µM

Question: For `CSCCCNC(=O)c1csc([C@@H](CSC)NC(=O)CCNC(=O)[C@@H](NC(=O)OCC(Br)(Br)Br)C(C)O)n1` (stereo not given in full), which TGI (EKVX NSCLC) is on record?
Answer: > 100 µM

Question: And the TGI (HOP-92 NSCLC)?
Answer: > 100 µM

Question: And the TGI (HT29 colon)?
Answer: > 100 µM

Question: What about the TGI (IGROV1 ovarian) of the same compound?
Answer: > 100 µM

Question: What about the TGI (M14 melanoma) of the same compound?
Answer: > 100 µM

Question: And the TGI (MDA-MB-435)?
Answer: > 100 µM

Question: And the TGI (NCI-H226 lung)?
Answer: > 100 µM

Question: What about the TGI (NCI-H23 lung) of the same compound?
Answer: > 100 µM

Question: What about the TGI (NCI/ADR-RES ovarian) of the same compound?
Answer: > 100 µM

Question: What does the source list for `C/C(=N/NC(=S)N(Cc1ccccn1)Cc1ccccn1)c1cnccn1`?
Answer: TGI (EKVX NSCLC): 7.4 µM; TGI (HOP-92 NSCLC): > 37.6 µM; TGI (HT29 colon): 10.3 µM; TGI (IGROV1 ovarian): 2.78 µM; TGI (M14 melanoma): > 35.9 µM; TGI (MDA-MB-435): 35.6 µM; TGI (NCI-H226 lung): 0.157 µM; TGI (NCI-H23 lung): 11.4 µM; TGI (T-47D breast): > 33.8 µM

Question: Which results are given for `c1ccc(-c2cc(-c3cc(-c4ccccc4)n[nH]3)[nH]n2)cc1`?
Answer: TGI (EKVX NSCLC): > 100 µM; TGI (HT29 colon): > 100 µM; TGI (IGROV1 ovarian): > 100 µM; TGI (M14 melanoma): > 100 µM; TGI (MDA-MB-435): > 100 µM; TGI (NCI-H226 lung): > 100 µM; TGI (NCI-H23 lung): > 100 µM; TGI (NCI/ADR-RES ovarian): > 100 µM; TGI (T-47D breast): > 100 µM

Question: Which results are given for `COc1ccc(/C=N/n2c(C)n[nH]c2=O)cc1`?
Answer: TGI (EKVX NSCLC): > 100 µM; TGI (HT29 colon): > 100 µM; TGI (M14 melanoma): > 100 µM; TGI (MDA-MB-435): > 100 µM; TGI (NCI-H226 lung): > 100 µM; TGI (NCI-H23 lung): > 100 µM; TGI (NCI/ADR-RES ovarian): > 100 µM; TGI (T-47D breast): > 100 µM

Question: `O=C(c1ccc(Cl)cc1)N(C(=S)N1CCN(c2ccccc2)CC1)c1ccccc1` was tested. Which TGI (HOP-92 NSCLC) did it give?
Answer: > 100 µM

Question: And the TGI (HT29 colon)?
Answer: > 100 µM

Question: And the TGI (IGROV1 ovarian)?
Answer: > 100 µM

Question: And the TGI (M14 melanoma)?
Answer: > 100 µM

Question: What about the TGI (NCI-H226 lung) of the same compound?
Answer: > 100 µM

Question: And the TGI (NCI-H23 lung)?
Answer: > 100 µM

Question: Which results are given for `CCOC(=O)c1ccc(Nc2nc3ccc(C(F)(F)F)cc3nc2-c2ccccc2)cc1`?
Answer: TGI (EKVX NSCLC): > 100 µM; TGI (HT29 colon): > 100 µM; TGI (IGROV1 ovarian): > 100 µM; TGI (M14 melanoma): > 100 µM; TGI (MDA-MB-435): > 100 µM; TGI (NCI-H226 lung): > 100 µM; TGI (NCI-H23 lung): > 100 µM; TGI (NCI/ADR-RES ovarian): > 100 µM; TGI (T-47D breast): 87.1 µM

Question: Which TGI (EKVX NSCLC) does the source give for `N#Cc1nsnc1-c1nc(-c2nsnc2C#N)nc(-c2nsnc2C#N)n1` here?
Answer: > 100 µM

Question: What about the TGI (HT29 colon) of the same compound?
Answer: > 100 µM

Question: What about the TGI (IGROV1 ovarian) of the same compound?
Answer: > 100 µM

Question: What about the TGI (MDA-MB-435) of the same compound?
Answer: > 100 µM

Question: And the TGI (NCI-H226 lung)?
Answer: > 100 µM

Question: What about the TGI (NCI-H23 lung) of the same compound?
Answer: > 100 µM

Question: And the TGI (NCI/ADR-RES ovarian)?
Answer: > 100 µM

Question: `C=CCOc1ccc(C2c3c([nH][nH]c3=O)CC(C)(O)C2C(=O)OC)cc1OC` (stereo not given) was tested. Which TGI (EKVX NSCLC) did it give?
Answer: > 100 µM

Question: What about the TGI (HOP-92 NSCLC) of the same compound?
Answer: > 100 µM

Question: And the TGI (HT29 colon)?
Answer: > 100 µM

Question: What about the TGI (IGROV1 ovarian) of the same compound?
Answer: > 100 µM

Question: And the TGI (M14 melanoma)?
Answer: > 100 µM

Question: And the TGI (MDA-MB-435)?
Answer: > 100 µM

Question: What about the TGI (NCI-H23 lung) of the same compound?
Answer: > 100 µM

Question: What about the TGI (NCI/ADR-RES ovarian) of the same compound?
Answer: > 100 µM

Question: What about the TGI (T-47D breast) of the same compound?
Answer: > 100 µM

Question: What does the source list for `Cc1ccc(S(=O)(=O)OCC23CCC(C4CC42)C2CC23)cc1` (stereo not given)?
Answer: TGI (HOP-92 NSCLC): > 100 µM; TGI (HT29 colon): > 100 µM; TGI (IGROV1 ovarian): > 100 µM; TGI (M14 melanoma): > 100 µM; TGI (NCI-H226 lung): > 100 µM; TGI (NCI-H23 lung): > 100 µM

Question: For `C/C=C/OC1C(C2COC(C)(C)O2)OC2OC(C)(C)OC21` (stereo not given), which TGI (EKVX NSCLC) is on record?
Answer: > 100 µM

Question: What about the TGI (HOP-92 NSCLC) of the same compound?
Answer: > 100 µM

Question: What about the TGI (HT29 colon) of the same compound?
Answer: > 100 µM

Question: And the TGI (IGROV1 ovarian)?
Answer: > 100 µM

Question: And the TGI (M14 melanoma)?
Answer: > 100 µM

Question: And the TGI (MDA-MB-435)?
Answer: > 100 µM

Question: What about the TGI (NCI-H23 lung) of the same compound?
Answer: > 100 µM

Question: What about the TGI (NCI/ADR-RES ovarian) of the same compound?
Answer: > 100 µM

Question: And the TGI (T-47D breast)?
Answer: > 100 µM

Source: PubChem BioAssay (NCI)
